Drawing on ChEMBL document CHEMBL1159261, “New bioactive monotetrahydrofuran Annonaceous acetogenins, annomuricin C and muricatocin C, from the leaves of Annona muricata” (J Nat Prod, 1995), this text covers LC50 and EC50 for five compounds.

The nature of series [1]: Toxicity against brine shrimp. It is filed as organism-based. The conditions noted are these: artemia, in vivo; read-out: LD50 (the source's name).
Series [2] concerns A549. Nature of the series: Cytotoxicity against human A549 cells after 7 days by MTT assay. Type of series: functional. The conditions noted are these: A549, 168 h, read-out: ED50 (the source's name). In general terms: Tetrazolium assays rely on reduction of a dye to a coloured formazan, in cell work by metabolically active cells.
Series [3] has as its system MCF7. As to the kind of experiment: Cytotoxicity against human MCF7 cells after 7 days by MTT assay. It is filed as functional. As to conditions: MCF7, 168 h, read-out: ED50 (the source's name).
Series [4] relates to HT-29. As to the kind of experiment: Cytotoxicity against human HT-29 cells after 7 days by MTT assay. As to conditions: HT-29, 168 h, read-out: ED50 (the source's name). It is filed as functional.

In brackets after ≈: the same amount, converted by molar mass.

On to `CCCCCCCCCCCC[C@@H](O)[C@H]1CC[C@H]([C@H](O)CCC[C@@H]2OC(C)(C)O[C@@H]2CCCCC[C@@H](O)CC2=C[C@H](C)OC2=O)O1`, for which the LC50 in series [1] turned out to be 0.235 µg/mL (≈ 0.36 µM). Besides, the EC50 in series [2] was 0.0698 µg/mL (≈ 0.107 µM); in series [3], 0.00481 µg/mL (≈ 0.00737 µM); in series [4], 1.41 µg/mL (≈ 2.16 µM).

With `CCCCCCCCCCCC[C@@H](O)[C@H]1CC[C@H]([C@H](O)CC[C@@H]2C[C@@H](CCCCC[C@@H](O)CC3=C[C@H](C)OC3=O)OC(C)(C)O2)O1`, the LC50 in series [1] stood at 0.189 µg/mL (≈ 0.289 µM). For the same compound, the EC50 was determined as 0.00376 µg/mL (≈ 0.00576 µM) in series [2], 0.00398 µg/mL (≈ 0.0061 µM) in series [3] and 0.261 µg/mL (≈ 0.4 µM) in series [4].

Consider `CCCCCCCCCCCC[C@@H](O)[C@H]1CC[C@H]([C@H](O)CCC[C@H](O)[C@@H](O)CCCCC[C@@H](O)CC2=C[C@H](C)OC2=O)O1` [ANNOMURICIN C], for which the LC50 in series [1] was 0.613 µg/mL (≈ 1 µM). The EC50 in series [2] was determined as 0.308 µg/mL (≈ 0.503 µM); in series [3], 0.228 µg/mL (≈ 0.372 µM); in series [4], 1.54 µg/mL (≈ 2.51 µM).

For `COc1cccc2c1C(=O)c1c(O)c3c(c(O)c1C2=O)C[C@@](O)(C(=O)CO)C[C@@H]3O[C@H]1C[C@H](N)[C@H](O)[C@H](C)O1` [DOXORUBICIN], the figures for the EC50 in series [3] and in series [4] were 0.106 µg/mL (≈ 0.195 µM) and 0.0348 µg/mL (≈ 0.064 µM), respectively.

Turning to `CCCCCCCCCCCC[C@@H](O)[C@H]1CC[C@H]([C@H](O)CC[C@@H](O)C[C@H](O)CCCCC[C@@H](O)CC2=C[C@H](C)OC2=O)O1` [MURICATOCIN C], the LC50 in series [1] is 0.604 µg/mL (≈ 0.985 µM). Also, the EC50 in series [2] is 0.0909 µg/mL (≈ 0.148 µM); in series [3] it was 0.0645 µg/mL (≈ 0.105 µM); in series [4] it was 1.48 µg/mL (≈ 2.41 µM).
